Measurements published in patent US20020137929A1, “1 - (3-heterocyclylphenyl) isothiourea, -isourea, -guanidine and -amidine herbicidal agents” (Intellectual Property Department, BASF Aktiengesellschaft, priority 1998, published 2002).

Tests used:
[1] = system: TRZAWR (Wheat, Winter, cv Riband); test: Preemergence herbicidal evaluation; assay type: in vivo, Triticum aestivum; details: preemergence, rated 4-5 weeks after treatment, 0-9 scale
Method in brief: (§1)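 Scores use a 0–9 visual scale covering stand, vigor, malformation, size and chlorosis relative to controls, rated four to five weeks after treatment. Before emergence, soil-planted seeds were sprayed with compound in aqueous acetone at roughly 0.0156–0.500 kg/ha and held in the greenhouse.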

CASOB (Sicklepod) = test: Postemergence herbicidal evaluation; assay type: in vivo, Cassia obtusifolia; details: postemergence
Method in brief: (§2)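 Scores (0–9) reflect plant stand, vigor, malformation, size, chlorosis and general appearance relative to control, read 4 to 5 weeks after treatment and averaged where tests were repeated. Application: about 0.0156–0.500 kg/ha sprayed at 40 psi onto two-week seedlings.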

[2] = system: GLXMAW (Soybean, Williams); test: Preemergence herbicidal evaluation; assay type: in vivo, Glycine max, (L.) Merr. cv Williams; details: preemergence, rated 4-5 weeks after treatment, 0-9 scale
Method in brief: as §1

[3] = system: CHEAL (Lambsquarters, Common); test: Postemergence herbicidal evaluation; assay type: in vivo, Chenopodium album; details: postemergence
Method in brief: as §2

CYPSE (Flatsedge) = test: Postemergence weed control under flooded paddy conditions; assay type: in vivo, Cyperus serotinus; details: postemergence weeds, rated 3 to 4 weeks after treatment
Method in brief: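 Flood-water application, about 0.0313–0.500 kg/ha a.i. in aqueous/acetone 50/50 v/v; water depth 1.5–3 cm throughout. Weeds 3–5 cm, rice 1.5–2.5 leaf. Greenhouse; 0–9 visual rating vs control at 3–4 wk.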

ECHCG (Barnyardgrass) = test: Postemergence herbicidal evaluation; assay type: in vivo, Echinochloa crus-galli; details: postemergence
Method in brief: as §2

ORYSAT (Rice, Tebonnet) [4] = test: Preemergence herbicidal evaluation; assay type: in vivo, Oryza sativa, (L.) Tebonnet; details: preemergence, rated 4-5 weeks after treatment, 0-9 scale
Method in brief: as §1

GALAP (Galium) = test: Preemergence herbicidal evaluation; assay type: in vivo, Galium aparine; details: preemergence, rated 4-5 weeks after treatment, 0-9 scale
Method in brief: as §1

ZEAMX (Corn, Field) = test: Preemergence herbicidal evaluation; assay type: in vivo, Zea mays; details: preemergence, rated 4-5 weeks after treatment, 0-9 scale
Method in brief: as §1

ORYSAT (Rice, Tebonnet) [5] = test: Postemergence herbicidal evaluation; assay type: in vivo, Oryza sativa, (L.) Tebonnet; details: postemergence
Method in brief: as §2

MOOVA (Monochoria) = test: Preemergence weed control under flooded paddy conditions; assay type: in vivo, Monochoria vaginalis; details: rated 3-4 weeks after treatment
Method in brief: (§3)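 Seeds or propagules sown in top 0.5 cm of silt loam soil, flooded 1.5 to 3 cm above surface throughout. Compound in 50/50 v/v aqueous/acetone pipetted into flood water at about 0.0313 to 0.500 kg/ha. Visual 0-9 rating versus control after three to four weeks in greenhouse.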

[6] = system: SAGPY (Arrowhead (Pygmaea)); test: as above; assay type: in vivo, Sagittaria pygmaea; details: rated 3-4 weeks after treatment
Method in brief: as §3

SETVI (Foxtail, Green) = test: Preemergence herbicidal evaluation; assay type: in vivo, Setaria viridis; details: preemergence, rated 4-5 weeks after treatment, 0-9 scale
Method in brief: as §1

CYPIR (Rice Flatsedge) = test: Preemergence weed control under flooded paddy conditions; assay type: in vivo, Cyperus iria; details: rated 3-4 weeks after treatment
Method in brief: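 First, seeds or propagules go into the top 0.5 cm of silt loam; next, water is held 1.5 to 3 cm over the soil; then compound (50/50 acetone/water) is pipetted into it at about 0.0313 to 0.500 kg/ha; finally plants are rated visually 0-9 after three to four weeks.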

C=CCN1C(=O)C(CC(=O)OCCF)SC1=Nc1cc(-n2c(=O)cc(C(F)(F)F)n(C)c2=O)c(F)cc1Cl (centres unmarked) [Compound 86, 2-Fluoroethyl 3-allyl-2-{{2-chloro-5-[3,6-dihydro-3-methyl-2,6-dioxo-4-(trifluoromethyl)-1(2H)-pyrimidinyl]-4-fluorophenyl}imino}-4-oxo-5-thiazolidineacetate]
7.0: CASOB herbicidal rating (CASOB (Sicklepod); rate 0.0625 kg/ha) | CYPIR herbicidal effect rating (CYPIR (Rice Flatsedge); 0.0625 kg/ha)
0.0: TRZAWR rating ([1]; 0.0156 kg/ha) | TRZAWR rating ([1]; 0.0313 kg/ha) | TRZAWR rating ([1]; 0.0625 kg/ha) | TRZAWR rating ([1]; 0.1250 kg/ha) | GLXMAW rating ([2]; 0.0156 kg/ha) | GLXMAW rating ([2]; 0.0313 kg/ha) | GLXMAW rating ([2]; 0.0625 kg/ha) | GLXMAW rating ([2]; 0.1250 kg/ha) | Herbicidal rating CYPSE (CYPSE (Flatsedge); Rate 0.0313 kg/ha) | Herbicidal rating CYPSE (CYPSE (Flatsedge); Rate 0.0625 kg/ha) | ORYSAT rating (ORYSAT (Rice, Tebonnet) [4]; 0.0156 kg/ha) | ORYSAT rating (ORYSAT (Rice, Tebonnet) [4]; 0.0313 kg/ha) | ORYSAT rating (ORYSAT (Rice, Tebonnet) [4]; 0.0625 kg/ha) | ORYSAT rating (ORYSAT (Rice, Tebonnet) [4]; 0.1250 kg/ha) | GALAP rating (GALAP (Galium); 0.0156 kg/ha) | GALAP rating (GALAP (Galium); 0.0313 kg/ha) | GALAP rating (GALAP (Galium); 0.0625 kg/ha) | GALAP rating (GALAP (Galium); 0.1250 kg/ha) | ZEAMX rating (ZEAMX (Corn, Field); 0.0156 kg/ha) | ZEAMX rating (ZEAMX (Corn, Field); 0.0313 kg/ha) | ZEAMX rating (ZEAMX (Corn, Field); 0.0625 kg/ha) | ZEAMX rating (ZEAMX (Corn, Field); 0.1250 kg/ha) | SETVI rating (SETVI (Foxtail, Green); 0.0156 kg/ha) | SETVI rating (SETVI (Foxtail, Green); 0.0313 kg/ha)
5.0: SAGPY herbicidal effect rating ([6]; 0.0313 kg/ha)
8.0: GLXMAW rating ([2]; 0.5000 kg/ha) | SETVI rating (SETVI (Foxtail, Green); 0.1250 kg/ha) | CYPIR herbicidal effect rating (CYPIR (Rice Flatsedge); 0.1250 kg/ha)
7.5: ORYSAT herbicidal rating (ORYSAT (Rice, Tebonnet) [5]; rate 0.0313 kg/ha) | ORYSAT herbicidal rating (ORYSAT (Rice, Tebonnet) [5]; rate 0.0625 kg/ha)
4.0: GLXMAW rating ([2]; 0.2500 kg/ha) | ZEAMX rating (ZEAMX (Corn, Field); 0.2500 kg/ha) | SETVI rating (SETVI (Foxtail, Green); 0.0625 kg/ha)
9.0: CASOB herbicidal rating (CASOB (Sicklepod); rate 0.1250 kg/ha) | CHEAL herbicidal rating ([3]; rate 0.0156 kg/ha) | CHEAL herbicidal rating ([3]; rate 0.0313 kg/ha) | CHEAL herbicidal rating ([3]; rate 0.0625 kg/ha) | CHEAL herbicidal rating ([3]; rate 0.1250 kg/ha) | Herbicidal rating CYPSE (CYPSE (Flatsedge); Rate 0.2500 kg/ha) | ECHCG herbicidal rating (ECHCG (Barnyardgrass); rate 0.0313 kg/ha) | ECHCG herbicidal rating (ECHCG (Barnyardgrass); rate 0.0625 kg/ha) | ECHCG herbicidal rating (ECHCG (Barnyardgrass); rate 0.1250 kg/ha) | GALAP rating (GALAP (Galium); 0.2500 kg/ha) | GALAP rating (GALAP (Galium); 0.5000 kg/ha) | ZEAMX rating (ZEAMX (Corn, Field); 0.5000 kg/ha) | MOOVA herbicidal effect rating (MOOVA (Monochoria); 0.0313 kg/ha) | MOOVA herbicidal effect rating (MOOVA (Monochoria); 0.0625 kg/ha) | MOOVA herbicidal effect rating (MOOVA (Monochoria); 0.1250 kg/ha) | MOOVA herbicidal effect rating (MOOVA (Monochoria); 0.2500 kg/ha) | SAGPY herbicidal effect rating ([6]; 0.0625 kg/ha) | SAGPY herbicidal effect rating ([6]; 0.1250 kg/ha) | SAGPY herbicidal effect rating ([6]; 0.2500 kg/ha) | SETVI rating (SETVI (Foxtail, Green); 0.2500 kg/ha) | SETVI rating (SETVI (Foxtail, Green); 0.5000 kg/ha) | CYPIR herbicidal effect rating (CYPIR (Rice Flatsedge); 0.2500 kg/ha)
6.0: TRZAWR rating ([1]; 0.5000 kg/ha) | ORYSAT rating (ORYSAT (Rice, Tebonnet) [4]; 0.5000 kg/ha)
2.0: TRZAWR rating ([1]; 0.2500 kg/ha) | CASOB herbicidal rating (CASOB (Sicklepod); rate 0.0313 kg/ha) | ORYSAT rating (ORYSAT (Rice, Tebonnet) [4]; 0.2500 kg/ha)
1.0: CASOB herbicidal rating (CASOB (Sicklepod); rate 0.0156 kg/ha)
3.0: Herbicidal rating CYPSE (CYPSE (Flatsedge); Rate 0.1250 kg/ha) | ECHCG herbicidal rating (ECHCG (Barnyardgrass); rate 0.0156 kg/ha) | ORYSAT herbicidal rating (ORYSAT (Rice, Tebonnet) [5]; rate 0.0156 kg/ha) | CYPIR herbicidal effect rating (CYPIR (Rice Flatsedge); 0.0313 kg/ha)
8.5: ORYSAT herbicidal rating (ORYSAT (Rice, Tebonnet) [5]; rate 0.1250 kg/ha)
